In patent US11510980B2, “Brartemicin analogues” (VICTORIA LINK LTD, priority 2017, dated 2022):

Assays:
[1] = biological target: T1, hMincle-Ig (Homo sapiens, UniProt Q9ULY5); experiment: In vitro Mincle binding assay (ELISA) with hMincle-Ig fusion protein; details: plate-coated ligand 0.1 nmol/well
T1 construct: using soluble Mincle-Ig fusion-proteins; made in house
T1 sequence (Q9ULY5 41-219 limits assumed): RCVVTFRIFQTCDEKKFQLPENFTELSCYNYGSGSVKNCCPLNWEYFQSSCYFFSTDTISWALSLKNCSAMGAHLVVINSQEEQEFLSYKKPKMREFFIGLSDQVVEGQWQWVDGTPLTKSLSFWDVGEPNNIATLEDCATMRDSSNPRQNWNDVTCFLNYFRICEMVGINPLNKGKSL
Method: (§1) Preparation of ligand-coated plates: Brartemicin analogues 9a-9i, TDM (Carbosynth, Sigma Aldrich), and TDB^14 were dissolved in CHCl3:MeOH (2:1, 1 mM), diluted in isopropanol ([…]) and added to 96-well plates (20 μL/well). The solvents were evaporated and the coated plates were used immediately.
(§2) In vitro Mincle binding assay: The preparation of mMincle- and hMincle-Ig fusion proteins have been previously described. Plate-coated glycolipids 9a-i, TDB, and TDM were incubated with hMincle-Ig, mMincle-Ig, or hIgG1-Fc (Ig) [3 μg/mL in binding buffer (20 mM Tris-HCl, 150 mM NaCl, 1 mM CaCl2), 2 mM MgCl2, pH 7.0)]. Detection of bound protein was achieved via incubation with anti-hIgG-HRP followed by the addition of a colorimetric substrate and measurement of OD at 450 nm. Background was accounted for by subtracting the hIgG1-Fc OD450 values from fusion protein OD450 values
(§3) The synthesised brartemicin analogues prepared in Example 1 were first tested for their ability to bind to both human and murine Mincle in an enzyme-linked immunosorbent assay (ELISA) using soluble Mincle-Ig fusion-proteins (FIG. 1a).

[2] = biological target: T2, mMincle-Ig (Mus musculus, UniProt Q9R0Q8); experiment: In vitro Mincle binding assay (ELISA) with mMincle-Ig fusion protein; design: species or system murine; details: plate-coated ligand 0.1 nmol/well
T2 construct: using soluble Mincle-Ig fusion-proteins; made in house
T2 sequence (Q9R0Q8 46-214 limits assumed): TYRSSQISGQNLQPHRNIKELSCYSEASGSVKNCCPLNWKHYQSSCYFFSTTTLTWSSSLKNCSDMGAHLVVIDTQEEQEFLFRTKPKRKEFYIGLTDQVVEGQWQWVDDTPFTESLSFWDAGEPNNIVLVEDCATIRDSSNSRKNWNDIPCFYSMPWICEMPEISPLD
Method: as §1, §2, §3

[3] = biological target: T3, mMincle+FcRγ (Mus musculus, UniProt Q9R0Q8); experiment: 2B4-NFAT-GFP reporter cells expressing mMincle+FcRγ; assay type: cell-based, murine; details: ligand-coated plates 0.01, 0.1 or 1 nmol/well, 18 hours
T3 construct: expressed in transfected cells; host or cells: 2B4-NFAT-GFP reporter cells
T3 sequence (Q9R0Q8 1-214): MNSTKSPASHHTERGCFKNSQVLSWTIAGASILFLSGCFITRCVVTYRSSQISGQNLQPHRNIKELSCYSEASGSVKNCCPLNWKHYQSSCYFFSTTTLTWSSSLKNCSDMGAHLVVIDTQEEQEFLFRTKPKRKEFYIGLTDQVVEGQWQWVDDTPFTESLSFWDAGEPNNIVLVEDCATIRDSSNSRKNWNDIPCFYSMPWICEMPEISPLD
T3 sequence (P20491 19-86 partner): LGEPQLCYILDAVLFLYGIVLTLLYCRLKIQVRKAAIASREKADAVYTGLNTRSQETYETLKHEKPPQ
Method: as §1
(§4) 2B4-NFAT-GFP reporter cells: 2B4-NFAT-GFP reporter cells expressing mMincle+FcRγ, hMincle+FcRγ, or FcRγ only have been previously described. […] The reporter cells were harvested, stained with propidium iodide, and analysed for NFAT-GFP expression using flow cytometry (FACS Calibur).
(§5) To determine whether the Mincle binding observed in Example 1 correlated with cellular activation, nuclear factor of activated T cells (NFAT)-green fluorescent protein (GFP) reporter cells expressing mMincle or hMincle coupled to FcRγ were stimulated using plates coated with TDM, TDB, brartemicin (9i), or analogues 9a-9h.
(§6) Activation of the reporter cells was measured through the production of GFP, which was monitored by flow cytometry (FIGS. 1b and 3c).
(§7) With the compounds 43a-h in hand, the ability of these analogues to bind and signal through Mincle was assessed (FIG. 5). Accordingly, NFAT-GFP reporter cells expressing mMincle+FcRγ, hMincle+FcRγ, or FcRγ-only were stimulated with the 2G-brartemicin analogues 43a-h, TDB, iPrOH, or the p-OC18H37 substituted analogue, 9f. Reporter cell activation was measured by the production of NFAT-GFP, which was analysed by flow cytometry.

[4] = biological target: T4, hMincle+FcRγ (Homo sapiens, UniProt Q9ULY5); experiment: 2B4-NFAT-GFP reporter cells expressing hMincle+FcRγ; assay type: cell-based; details: ligand-coated plates 0.01, 0.1 or 1 nmol/well, 18 hours
T4 construct: expressed in transfected cells; host or cells: 2B4-NFAT-GFP reporter cells
T4 sequence (Q9ULY5 1-219): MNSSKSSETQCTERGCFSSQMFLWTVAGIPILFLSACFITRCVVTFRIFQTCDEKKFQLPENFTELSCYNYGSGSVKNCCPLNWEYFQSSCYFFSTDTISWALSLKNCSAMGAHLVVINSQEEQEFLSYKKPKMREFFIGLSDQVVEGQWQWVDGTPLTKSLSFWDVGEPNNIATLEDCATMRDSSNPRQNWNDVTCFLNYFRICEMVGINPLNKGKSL
Method: as §1, §4, §5, §6, §7

[5] = system: wild-type GM-CSF BMDMs; experiment: Cytokine/chemokine production by wild-type GM-CSF BMDMs on ligand-coated plates; assay type: cell-based, C57BL/6 mice; details: for IL-1β production / IL-6 production / MIP-2 production / TNF production: wild-type BMDMs, coated plates 0.1 or 1 nmol/well, 24 hours, ELISA
Method: as §1
Murine bone-marrow derived macrophages: For the preparation of murine bone-marrow derived macrophages, bone marrow cells were collected from the tibias and femurs of C57BL/6 mice and cultured (250,000 cells/mL) in complete RPMI media [RPMI-1640 (Gibco) with 10% heat inactivated fetal bovine serum (Gibco), 100 unit/mL penicillin-streptomycin (Gibco) and 2 mM Glutamax (Gibco)] supplemented with 50 ng/mL GM-CSF (clone X63/GM-CSF murine cells). Cells were incubated at 37° C. (5% CO2) for 8 days (cells fed by replacing half the media on days 3 and 6). On day 8, all media was removed and the cells were washed with Dulbecco's Phosphate-Buffered Saline (DPBS, Gibco) to remove any loosely-adherent cells. The BMDMs were harvested with StemPro Acutase (1 mL/well, 15 minutes at room temperature, Gibco) and seeded onto a pre-coated 96-well plate. The supernatant was collected and analysed for cytokine/chemokine production after 24 hours.
Cytokine analysis: IL-1β, IFN-γ, IL-6, TNF-α (BD Biosciences), IL-17, and MIP-2 (R&D) levels were determined via sandwich ELISA according to the manufacturer's instructions.
First, the ability of the compounds to activate GM-CSF BMDMs was determined by monitoring the secretion of the inflammatory cytokines TNF, IL-6, and IL-1β and the chemokine, MIP-2, in a ligand-coated plate assay (FIG. 2).
To gain insight into the capacity of the 2G-series of brartemicin analogues to induce an inflammatory immune response, the analogues were then screened for their ability to activate WT and Mincle^−/− BMDMs, with cellular activation being determined by the measurement of IL-1B using ELISA (FIG. 6).

| binding to hMincle-Ig (ELISA, OD at 450 nm) [1] | binding to mMincle-Ig (ELISA, OD at 450 nm) [2] | activation of mMincle NFAT-GFP reporter cells (GFP by flow cytometry) [3] | activation of mMincle NFAT-GFP reporter cells (GFP by flow cytometry) ([3]; listed as Brartemicin) | activation of hMincle NFAT-GFP reporter cells (GFP by flow cytometry) [4] | SMILES | activation of BMDMs [5] | IL-1β production [5] | IL-6 production [5] | MIP-2 production [5] | TNF production [5] |
| --- | --- | --- | --- | --- | --- | --- | --- | --- | --- | --- |
| good binding | good binding | strongly activated |  | strongly activated | CCCCCCCOc1cc(C)c(C(=O)OCC2O[C@H](O[C@H]3OC(COC(=O)c4c(C)cc(OCCCCCCC)cc4O)[C@@H](O)C(O)C3O)C(O)C(O)[C@@H]2O)c(O)c1 (stereo partly drawn) [9h, 6,6′-Di-O-(4-heptyloxy-2-hydroxy-6-methylbenzoyl)-α,α′-D-trehalose] |  | significant production | significant production | significant production | significant production |

| SMILES | binding to hMincle-Ig (ELISA, OD at 450 nm) [1] | binding to mMincle-Ig (ELISA, OD at 450 nm) [2] | activation of mMincle NFAT-GFP reporter cells (GFP by flow cytometry) [3] | activation of mMincle NFAT-GFP reporter cells (GFP by flow cytometry) ([3]; listed as Brartemicin) | activation of hMincle NFAT-GFP reporter cells (GFP by flow cytometry) [4] | activation of BMDMs [5] | IL-1β production [5] | IL-6 production [5] | MIP-2 production [5] | TNF production [5] |
| --- | --- | --- | --- | --- | --- | --- | --- | --- | --- | --- |
| Cc1cc(O)cc(O)c1C(=O)OC[C@H]1O[C@H](O[C@H]2O[C@H](COC(=O)c3c(C)cc(O)cc3O)[C@@H](O)[C@H](O)[C@H]2O)[C@H](O)[C@@H](O)[C@@H]1O [9i, Brartemicin] | did not bind hMincle- or mMincle-Ig to any great extent | did not bind hMincle- or mMincle-Ig to any great extent | did not significantly activate mMincle | not to activate | not to activate | not to activate | did not induce the production of any of the cytokines measured | did not induce the production of any of the cytokines measured | did not induce the production of any of the cytokines measured | did not induce the production of any of the cytokines measured |
| CCCCCCCOc1ccc(C(=O)OCC2O[C@H](O[C@H]3OC(COC(=O)c4ccc(OCCCCCCC)cc4O)[C@@H](O)C(O)C3O)C(O)C(O)[C@@H]2O)c(O)c1 (stereo partly drawn) [9b, 6,6′-Di-O-(4-heptyloxy-2-hydroxybenzoyl)-α,α′-D-trehalose] | good binding | good binding | activated mMincle and hMincle NFATGFP reporter cells but to a lesser extent than the C18 analogues |  | activated mMincle and hMincle NFATGFP reporter cells but to a lesser extent than the C18 analogues |  | modest production | modest production | modest production | modest production |
